“Also recorded” adds a separate entry of the source.
How the values were obtained:
TRPM4 homomers = TRPM4 homomers (Homo sapiens, UniProt Q8TD43); conditions: Sala-Rabanal M, et al. 2012; cited from earlier work
HUVECs [1] = assay: Tube formation of HUVECs on Matrigel after OGD; type: cell-based, human; conditions: 5 μM
Procedure: (§1) HUVECs (Lonza, Wokingham, UK) were cultured at 37° C. with 5% CO2. The culture medium is endothelial growth medium-2 (EGM-2) consisting of endothelial basal medium (EBM), supplemented with 2% fetal bovine serum, hydrocortisone, hFGF, VEGF, R3-IGF-1, ascorbic acid, HEGF, GA-1000, and heparin (Lonza, Wokingham, UK). Cells at passage 6-10 were used for experiments. HUVECs were subjected to oxygen/glucose deprivation (OGD). To achieve supplement deprivation, EGM-2 was changed to EBM without fetal bovine serum or growth supplements. Hypoxia was induced by culturing the cells in a hypoxic chamber (Stem Cell Technologies, Vancouver, Canada) with 1% O2 and 5% CO2 at 37° C. for 24 hours.
HUVECs were divided into the following groups: Normoxia; Normoxia+5 μM 9-phenanthrol (Sigma); Hypoxia; and Hypoxia+5 μM 9-phenanthrol. A 24-well culture plate was precoated with 250 μl of growth factor-reduced Matrigel (Sigma, USA) at 37° C. for 30 minutes. 24 hours after OGD, 4×10^4 cells (in 300 μl of EGM-2) from each group were seeded onto the Matrigel-coated plates. The formation of capillary structures was examined under a light microscope after 4 hours. This study was replicated more than 4 times.

HUVECs [2] = assay: HUVEC cell number count after different doses of 9-phenanthrol; type: cell-based, human
Procedure: as §1
To test the functional impact of TRPM4 on HUVECs, the cells were incubated with the TRPM4-specific blocker 9-phenanthrol. […] A study was performed in which 9-phenantrol with the concentration ranged from 0.1 μM to 30 μM was added to HUVECs. […] Thus, 5 μM 9-phenanthrol was used to treat HUVECs.

HUVECs [3] = assay: HUVEC cell death after oxygen/glucose deprivation (cell count, MTT); type: cell-based, human; conditions: 5 μM
Procedure: as §1

TRPM5 channel = target: T1, TRPM5 channel (Homo sapiens, UniProt Q9NZQ8); conditions: Grand T, et al. 2008; cited from earlier work
T1 sequence (Q9NZQ8 1-1165): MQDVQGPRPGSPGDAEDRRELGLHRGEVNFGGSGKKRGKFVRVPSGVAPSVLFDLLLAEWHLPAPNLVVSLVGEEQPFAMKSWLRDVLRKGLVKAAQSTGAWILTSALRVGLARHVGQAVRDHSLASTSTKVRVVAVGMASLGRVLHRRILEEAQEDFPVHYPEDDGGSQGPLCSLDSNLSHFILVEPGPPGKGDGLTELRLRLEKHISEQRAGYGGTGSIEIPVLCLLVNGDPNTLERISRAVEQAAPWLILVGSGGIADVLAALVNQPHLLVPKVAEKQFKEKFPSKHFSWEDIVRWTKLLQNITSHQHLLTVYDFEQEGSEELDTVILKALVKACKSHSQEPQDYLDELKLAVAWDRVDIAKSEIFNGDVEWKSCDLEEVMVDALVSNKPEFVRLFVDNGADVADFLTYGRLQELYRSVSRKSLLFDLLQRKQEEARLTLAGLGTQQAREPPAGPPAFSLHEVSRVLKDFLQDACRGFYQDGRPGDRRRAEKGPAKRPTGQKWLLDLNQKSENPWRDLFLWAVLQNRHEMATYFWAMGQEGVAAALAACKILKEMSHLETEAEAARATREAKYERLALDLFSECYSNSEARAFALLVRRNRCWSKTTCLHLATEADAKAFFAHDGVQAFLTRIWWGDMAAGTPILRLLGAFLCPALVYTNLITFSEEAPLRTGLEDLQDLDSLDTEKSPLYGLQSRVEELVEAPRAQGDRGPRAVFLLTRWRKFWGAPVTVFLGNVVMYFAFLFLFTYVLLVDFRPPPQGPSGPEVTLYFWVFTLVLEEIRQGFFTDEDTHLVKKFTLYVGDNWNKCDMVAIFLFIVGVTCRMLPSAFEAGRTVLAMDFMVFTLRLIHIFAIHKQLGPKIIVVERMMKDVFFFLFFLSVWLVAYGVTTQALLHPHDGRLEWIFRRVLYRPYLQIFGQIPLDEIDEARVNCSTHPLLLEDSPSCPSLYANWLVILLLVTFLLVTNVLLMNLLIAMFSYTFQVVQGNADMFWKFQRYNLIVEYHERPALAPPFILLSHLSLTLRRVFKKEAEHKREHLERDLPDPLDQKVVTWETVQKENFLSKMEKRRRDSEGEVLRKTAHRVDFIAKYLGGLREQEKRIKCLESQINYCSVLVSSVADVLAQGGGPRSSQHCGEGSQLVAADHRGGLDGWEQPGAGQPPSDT

TRPM4 homomers, sequence (Q8TD43 whole entry): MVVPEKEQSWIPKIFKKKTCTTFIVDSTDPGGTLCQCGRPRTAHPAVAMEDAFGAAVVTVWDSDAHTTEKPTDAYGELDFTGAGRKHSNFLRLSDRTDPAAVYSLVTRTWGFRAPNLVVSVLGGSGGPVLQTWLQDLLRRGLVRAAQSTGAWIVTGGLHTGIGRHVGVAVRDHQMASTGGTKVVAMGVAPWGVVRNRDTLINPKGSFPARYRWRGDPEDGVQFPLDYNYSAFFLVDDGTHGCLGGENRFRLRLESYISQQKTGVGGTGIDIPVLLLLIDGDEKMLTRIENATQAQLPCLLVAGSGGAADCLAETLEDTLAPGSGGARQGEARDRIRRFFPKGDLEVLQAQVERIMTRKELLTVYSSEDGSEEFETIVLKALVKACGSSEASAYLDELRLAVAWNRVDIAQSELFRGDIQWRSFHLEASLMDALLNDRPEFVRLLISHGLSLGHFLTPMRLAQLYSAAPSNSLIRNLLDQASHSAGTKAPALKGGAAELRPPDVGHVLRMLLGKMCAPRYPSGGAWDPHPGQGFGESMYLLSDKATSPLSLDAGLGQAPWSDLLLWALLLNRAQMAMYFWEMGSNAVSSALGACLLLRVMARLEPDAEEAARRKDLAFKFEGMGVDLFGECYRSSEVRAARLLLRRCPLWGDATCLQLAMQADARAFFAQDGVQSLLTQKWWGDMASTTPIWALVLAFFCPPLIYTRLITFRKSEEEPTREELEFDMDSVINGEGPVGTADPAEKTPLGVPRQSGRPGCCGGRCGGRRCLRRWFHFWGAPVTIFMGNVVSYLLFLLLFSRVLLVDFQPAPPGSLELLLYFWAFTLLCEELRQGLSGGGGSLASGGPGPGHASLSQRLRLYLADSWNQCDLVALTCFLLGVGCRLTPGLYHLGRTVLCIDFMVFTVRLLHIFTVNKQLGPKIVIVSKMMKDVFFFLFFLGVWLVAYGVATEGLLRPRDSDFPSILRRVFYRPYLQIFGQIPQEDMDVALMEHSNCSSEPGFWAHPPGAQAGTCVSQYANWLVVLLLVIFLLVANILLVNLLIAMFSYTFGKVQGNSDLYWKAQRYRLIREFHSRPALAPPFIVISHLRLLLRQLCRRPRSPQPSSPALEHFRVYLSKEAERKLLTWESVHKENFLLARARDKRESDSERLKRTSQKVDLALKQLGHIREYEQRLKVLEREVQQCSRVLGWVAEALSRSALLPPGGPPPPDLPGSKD

Row | Compound | sensitivity of TRPM4 homomers (TRPM4 homomers) | tube formation (tube branches) on Matrigel (HUVECs [1]) | cell death (HUVECs [2]; 10 μM 9-phenanthrol in culture medium) | cell survival (HUVECs [2]; 30 μM 9-phenanthrol) | cell death (HUVECs [2]; 9-phenanthrol between 0.1 μM and 5 μM) | cell death after OGD (HUVECs [3]; 24 hours OGD) | MTT assay cell viability (HUVECs [3]; vs control cells) | HUVEC cell number count (HUVECs [3]; vs control cells, normoxia and hypoxia 24 hours) | effect on TRPM5 channel (TRPM5 channel)
1 | COc1ccc(Cl)cc1C(=O)NCCc1ccc(S(=O)(=O)NC(=O)NC2CCCCC2)cc1 [glibenclamide] | not sensitive |  |  |  |  |  |  |  | 
2 | Oc1cc2ccccc2c2ccccc12 [9-phenanthrol] |  | large enhancement; also recorded: significantly increased | Cell death became prominent | Very few cells survived | No difference | did not reduce cell death | no difference | no difference | does not affect

— patent publication US10221239B2, “TRPM4 channel inhibitors for stroke treatment” (Singapore Health Services Pte Ltd, priority 2013, dated 2019)
